Experimental data from PMC10687071 (The Journal of Biological Chemistry, 2023).
Where a chain is given by its changes, count along the chain named.

How the values were obtained:
[1] = target: T1, F87G mutant EAG1 channels (Mus musculus, UniProt Q60603, F87G); assay: TEVC recording, imipramine inhibition, F87G mutant; type: cell-based; details: F87G mutant EAG1 channel, +50 mV
T1 construct: expressed in transfected cells; host or cells: Xenopus laevis oocytes injected with cRNA
T1 sequence (Q60603 1-989 F87G): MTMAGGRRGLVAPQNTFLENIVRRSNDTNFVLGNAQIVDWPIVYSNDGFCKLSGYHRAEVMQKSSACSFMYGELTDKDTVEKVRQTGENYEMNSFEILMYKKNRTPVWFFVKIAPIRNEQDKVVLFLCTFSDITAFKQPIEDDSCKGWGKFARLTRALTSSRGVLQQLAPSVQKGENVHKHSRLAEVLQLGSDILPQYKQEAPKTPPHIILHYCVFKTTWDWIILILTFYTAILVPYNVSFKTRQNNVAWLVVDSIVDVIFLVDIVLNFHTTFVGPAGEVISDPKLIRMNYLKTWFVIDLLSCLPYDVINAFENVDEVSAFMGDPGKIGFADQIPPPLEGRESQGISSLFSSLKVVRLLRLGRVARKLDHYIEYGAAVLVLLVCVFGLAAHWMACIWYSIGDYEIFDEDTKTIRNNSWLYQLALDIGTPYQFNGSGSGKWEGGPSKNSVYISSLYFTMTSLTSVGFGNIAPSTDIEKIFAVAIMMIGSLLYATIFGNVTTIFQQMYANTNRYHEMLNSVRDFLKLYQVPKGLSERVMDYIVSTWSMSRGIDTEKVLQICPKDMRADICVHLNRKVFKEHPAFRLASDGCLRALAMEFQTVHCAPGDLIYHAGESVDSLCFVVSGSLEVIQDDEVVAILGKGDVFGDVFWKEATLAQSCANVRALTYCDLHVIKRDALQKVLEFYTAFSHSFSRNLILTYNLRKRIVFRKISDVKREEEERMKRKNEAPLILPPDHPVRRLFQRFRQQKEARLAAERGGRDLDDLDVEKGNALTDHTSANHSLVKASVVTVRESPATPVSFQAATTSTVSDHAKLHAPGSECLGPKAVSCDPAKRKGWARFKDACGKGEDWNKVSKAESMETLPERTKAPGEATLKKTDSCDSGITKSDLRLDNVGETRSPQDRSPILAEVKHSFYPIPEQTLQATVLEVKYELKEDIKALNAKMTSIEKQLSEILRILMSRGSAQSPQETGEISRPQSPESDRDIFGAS
Text: (§1) The cDNA encoding wild-type (WT) mouse EAG1 channels in pGH19 vector was kindly provided by G. Robertson (University of Wisconsin-Madison, Madison, WI). The mutant ΔPAS EAG1 channel in pGH19 with the deletion of the PAS domain residues 2 to 130 was generated by Bio Basic Inc and verified by DNA sequencing (Genewiz). Mutant EAG1 channels with single amino acid substitutions were generated by Genewiz and verified by DNA sequencing. cRNA was transcribed using the T7 mMessage mMachine kit (Thermo Fisher Scientific). Defolliculated Xenopus laevis oocytes were purchased from Ecocyte Bioscience or Xenopus1 and injected with the cRNA using a Nanoinject II oocyte injector (Drummond).
(§2) For EAG1 current recordings, oocytes were placed into a handmade chamber containing a bath solution for the current recording. The currents were recorded using a TEVC technique with OC-725C amplifier (Warner Instruments) and pClamp11 software (Molecular Devices). The signals were digitized using Digidata 1550 (Molecular Devices). Patch pipettes were pulled from borosilicate glass and had resistances of 0.7 to 1.5 MΩ. The recording (bath) solution contained 96 mM NaCl, 4 mM KCl, 0.1 mM CaCl2, 1.8 mM MgCl2, and 5 mM HEPES, pH 7.5. The pipette solution contained 3 M KCl. […]

[2] = target: T2, Y71V mutant EAG1 channels (Mus musculus, UniProt Q60603, Y71V); assay: TEVC recording, imipramine inhibition, Y71V mutant; type: cell-based; details: Y71V mutant EAG1 channel, +50 mV
T2 construct: expressed in transfected cells; host or cells: Xenopus laevis oocytes injected with cRNA
T2 sequence (Q60603 1-989 Y71V): T1 sequence (Q60603 1-989 F87G) with Y71V, G87F
Text: as §1, §2

For CN(C)CCCN1c2ccccc2CCc2ccccc21 [imipramine], the IC50 [1] was 42.8 ± 0.6 µM and the IC50 [2] was 31.3 ± 1.8 µM.
